Measurements as given in ChEMBL document CHEMBL1201862, “PubChem BioAssay data set” (2004).
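48-hour exposure; five concentrations; linearly interpolated endpoints. GI50 is the concentration that inhibits growth by half.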 Active and inactive are the calls of the source. Rule as the data show it: active = GI50 up to about 1.1 µM and inactive = higher.

What was measured:
Assay in all cases: NCI-60 cell line screen, 48 h
LOX IMVI = tested on: LOX IMVI
786-0 = tested on: 786-0
KM12 = tested on: KM12
SF-268 = tested on: SF-268
HCC 2998 = tested on: HCC 2998
EKVX = tested on: EKVX
NCI-H23 = tested on: NCI-H23
SW-620 = tested on: SW-620
HT-29 = tested on: HT-29
SK-MEL-28 = tested on: SK-MEL-28
SF-295 = tested on: SF-295
NCI-H460 = tested on: NCI-H460
U-251 = tested on: U-251
IGROV-1 = tested on: IGROV-1
SNB-75 = tested on: SNB-75

Measured: GI50

N#CCCC(C#N)(C#N)CCC#N
inactive: LOX IMVI > 100 µM | 786-0 > 100 µM | KM12 > 100 µM | SF-268 > 100 µM | HCC 2998 > 100 µM | EKVX > 100 µM | NCI-H23 > 100 µM | SW-620 > 100 µM | HT-29 > 100 µM | SK-MEL-28 > 100 µM | SF-295 > 100 µM | NCI-H460 > 100 µM | U-251 > 100 µM | IGROV-1 > 100 µM

S=P(N1CCCC1)(N1CC1)N1CC1
inactive: LOX IMVI > 100 µM | 786-0 > 100 µM | KM12 > 100 µM | SF-268 > 100 µM | HCC 2998 > 100 µM | EKVX > 100 µM | SNB-75 > 100 µM | NCI-H23 > 100 µM | SW-620 > 100 µM | HT-29 > 100 µM | SK-MEL-28 > 100 µM | SF-295 > 100 µM | NCI-H460 32.4 µM | U-251 > 100 µM | IGROV-1 > 100 µM

C/C(CN1C(=O)c2ccccc2C1=O)=N\NS(=O)(=O)c1ccc(Br)cc1
inactive: LOX IMVI > 100 µM | 786-0 > 100 µM | KM12 > 100 µM | SF-268 > 100 µM | HCC 2998 > 100 µM | EKVX > 100 µM | SNB-75 > 100 µM | NCI-H23 > 100 µM | SW-620 > 100 µM | HT-29 > 100 µM | SK-MEL-28 > 100 µM | SF-295 > 100 µM | NCI-H460 > 100 µM | U-251 > 100 µM | IGROV-1 > 100 µM

CCC1(c2c(F)c(F)c(N)c(F)c2F)CCC(=O)NC1=O (stereo unspecified)
inactive: LOX IMVI > 100 µM | 786-0 > 100 µM | KM12 > 100 µM | SF-268 > 100 µM | HCC 2998 > 100 µM | EKVX > 100 µM | SNB-75 38.7 µM | NCI-H23 > 100 µM | SW-620 > 100 µM | HT-29 > 100 µM | SK-MEL-28 > 100 µM | SF-295 > 100 µM | NCI-H460 > 100 µM | U-251 > 100 µM | IGROV-1 > 100 µM

CC(C)(C)/N=C1/CC(C)(C)c2ccccc2/C(=N\c2ccccc2)S1
inactive: LOX IMVI 18.6 µM | 786-0 39.4 µM | KM12 26.8 µM | SF-268 28.2 µM | HCC 2998 35.2 µM | EKVX 55.5 µM | SNB-75 32.5 µM | NCI-H23 27.7 µM | SW-620 44 µM | HT-29 35 µM | SK-MEL-28 37.4 µM | SF-295 32.4 µM | NCI-H460 30.1 µM | U-251 30.6 µM | IGROV-1 48.3 µM

CO/S(=N/S(=O)(=O)c1ccccc1)c1ccccc1[N+](=O)[O-] (stereo unspecified)
inactive: LOX IMVI > 100 µM | 786-0 > 100 µM | KM12 > 100 µM | SF-268 > 100 µM | HCC 2998 > 100 µM | EKVX > 100 µM | SNB-75 > 100 µM | NCI-H23 > 100 µM | SW-620 > 100 µM | HT-29 > 100 µM | SK-MEL-28 > 100 µM | SF-295 > 100 µM | NCI-H460 > 100 µM | U-251 > 100 µM | IGROV-1 > 100 µM

CCP(C)(=O)CC
inactive: LOX IMVI > 100 µM | 786-0 > 100 µM | KM12 > 100 µM | SF-268 > 100 µM | HCC 2998 > 100 µM | EKVX > 100 µM | SNB-75 > 100 µM | NCI-H23 > 100 µM | SW-620 > 100 µM | HT-29 > 100 µM | SK-MEL-28 > 100 µM | SF-295 > 100 µM | NCI-H460 > 100 µM | U-251 > 100 µM | IGROV-1 > 100 µM

CC(C)C(Sc1nc(-c2ccccc2)c(-c2ccccc2)[nH]1)C(=O)N/N=C/c1ccc(Cl)cc1 (stereo unspecified)
inactive: LOX IMVI 15.5 µM | 786-0 21.6 µM | KM12 19.8 µM | SF-268 20.9 µM | EKVX 22.1 µM | SNB-75 29.3 µM | NCI-H23 22.3 µM | SW-620 26.2 µM | HT-29 14.9 µM | SK-MEL-28 21.8 µM | SF-295 22.8 µM | NCI-H460 22.7 µM | U-251 21.7 µM | IGROV-1 24 µM

N#CC(NNC(=O)c1ccccc1O)c1ccc(O)cc1 (stereo unspecified)
inactive: LOX IMVI 5.83 µM | 786-0 8.02 µM | KM12 4.94 µM | SF-268 1.79 µM | SNB-75 1.24 µM | NCI-H23 8.05 µM | SW-620 26.7 µM | HT-29 28.1 µM | SK-MEL-28 > 100 µM | SF-295 4.38 µM | NCI-H460 3.79 µM | U-251 3.8 µM | IGROV-1 3.96 µM

NC1=NN(c2ccccc2)C(=O)C1C(=O)CCC(=O)Nc1cccc(C(F)(F)F)c1 (stereo unspecified)
inactive: LOX IMVI 72.4 µM | 786-0 > 100 µM | KM12 > 100 µM | SF-268 > 100 µM | HCC 2998 > 100 µM | EKVX > 100 µM | NCI-H23 > 100 µM | SW-620 42.6 µM | HT-29 > 100 µM | SK-MEL-28 > 100 µM | SF-295 > 100 µM | NCI-H460 > 100 µM | U-251 > 100 µM | IGROV-1 > 100 µM

O=C(/C=N/O)Nc1cccc(Cl)c1I
inactive: LOX IMVI 96.8 µM | 786-0 > 100 µM | KM12 65.6 µM | SF-268 35.9 µM | HCC 2998 > 100 µM | EKVX 8.83 µM | SNB-75 12.8 µM | NCI-H23 59.2 µM | SW-620 > 100 µM | HT-29 > 100 µM | SK-MEL-28 > 100 µM | SF-295 50.7 µM | NCI-H460 > 100 µM | U-251 39.2 µM | IGROV-1 26.5 µM

Cc1nc2ccccc2nc1NS(=O)(=O)c1ccc(N)cc1
inactive: LOX IMVI > 100 µM | 786-0 > 100 µM | KM12 > 100 µM | SF-268 > 100 µM | HCC 2998 > 100 µM | EKVX > 100 µM | SNB-75 50.9 µM | NCI-H23 > 100 µM | SW-620 > 100 µM | HT-29 > 100 µM | SK-MEL-28 > 100 µM | SF-295 > 100 µM | U-251 > 100 µM | IGROV-1 > 100 µM

O=c1[nH]c(=O)n(C2CC(O)C(CO)O2)cc1COCC(F)(F)F (stereo unspecified)
inactive: LOX IMVI > 100 µM | 786-0 > 100 µM | KM12 > 100 µM | SF-268 > 100 µM | HCC 2998 > 100 µM | EKVX > 100 µM | SNB-75 > 100 µM | NCI-H23 > 100 µM | SW-620 > 100 µM | HT-29 > 100 µM | SF-295 > 100 µM | NCI-H460 > 100 µM | U-251 > 100 µM | IGROV-1 > 100 µM

C#CCOCn1cnc2c(N)ncnc21
inactive: LOX IMVI > 100 µM | 786-0 > 100 µM | KM12 > 100 µM | SF-268 > 100 µM | HCC 2998 > 100 µM | EKVX > 100 µM | SNB-75 > 100 µM | NCI-H23 > 100 µM | SW-620 > 100 µM | HT-29 > 100 µM | SK-MEL-28 > 100 µM | SF-295 > 100 µM | NCI-H460 > 100 µM | U-251 > 100 µM | IGROV-1 > 100 µM

CC1=CC2C(=O)N(c3ccccc3)C(=O)C2CC1n1[nH]c(=O)n(Cc2ccccc2)c1=O (stereo unspecified)
inactive: LOX IMVI > 100 µM | 786-0 > 100 µM | KM12 > 100 µM | SF-268 > 100 µM | HCC 2998 > 100 µM | EKVX > 100 µM | SNB-75 > 100 µM | NCI-H23 > 100 µM | SW-620 > 100 µM | HT-29 > 100 µM | SK-MEL-28 > 100 µM | SF-295 > 100 µM | NCI-H460 > 100 µM | U-251 > 100 µM | IGROV-1 > 100 µM

O=C1C[C@H]2CC3(CC[C@H]2CN1)OCCO3
inactive: LOX IMVI > 100 µM | 786-0 > 100 µM | KM12 > 100 µM | SF-268 > 100 µM | HCC 2998 > 100 µM | EKVX > 100 µM | SNB-75 > 100 µM | NCI-H23 > 100 µM | SW-620 > 100 µM | HT-29 > 100 µM | SK-MEL-28 > 100 µM | SF-295 > 100 µM | NCI-H460 > 100 µM | U-251 > 100 µM | IGROV-1 > 100 µM

O=C(CCC(=O)Nc1ccc(Cl)c(Cl)c1)CC(=O)c1ccc(Cl)cc1
inactive: LOX IMVI > 100 µM | 786-0 > 100 µM | KM12 > 100 µM | SF-268 > 100 µM | HCC 2998 > 100 µM | EKVX > 100 µM | NCI-H23 > 100 µM | SW-620 > 100 µM | HT-29 > 100 µM | SF-295 > 100 µM | NCI-H460 > 100 µM | U-251 > 100 µM | IGROV-1 > 100 µM

O=C(c1ccc([N+](=O)[O-])cc1[N+](=O)[O-])N(/N=C/C=C/c1ccccc1)c1nnc(-c2ccccc2)c(-c2ccccc2)n1
inactive: LOX IMVI 35.7 µM | 786-0 21 µM | KM12 34.8 µM | SF-268 40.7 µM | HCC 2998 31.6 µM | EKVX 36.4 µM | SNB-75 28.8 µM | NCI-H23 27 µM | SW-620 44.4 µM | HT-29 46 µM | SK-MEL-28 27.3 µM | SF-295 30.5 µM | NCI-H460 34 µM | U-251 40.3 µM | IGROV-1 42.1 µM
